Laboratory results as given in patent US20150253323A1, “METHODS AND KITS FOR HIGH THROUGHPUT SCREENING FOR COMPOUNDS TARGETING DNA-BINDING AND RNA-BINDING PROTEINS” (The Florida International University Board of Trustees, priority 2014, published 2015).
“Also recorded” adds a separate entry of the source. Structures can show the parent of a compound that is named as a salt. Where two headings read alike, the source gives them in different places.

What was measured:
[1] = tested on: HMGA2-FL814 interaction; assay: PDI-ELISA for HMGA2 binding to DNA oligomer FL814; set-up: species or system mammalian; details: for inhibition of HMGA2-FL814 interactions: compound at 100 nM in 2×SSCT, FIG. 12 / Table 1; for IC50: netropsin titration
[2] = tested on: 3T3-L1 cells; assay: Oil Red O staining of differentiated 3T3-L1 cells (adipogenesis); assay type: cell-based, mouse
Protocol: Mouse pre-adipocytes (3T3-L1 cells) were a gracious gift from Dr Jun Liu at Mayo Clinic. 3T3-L1 cells were maintained in DMEM supplemented with 10% FBS, 100 U/ml penicillin, 100 μg/ml streptomycin and 5 μg/ml plasmocin. The cells were grown under normal culture conditions of 5% CO2 and humidity. Cells were maintained for a minimum of three passages in linear growth prior to differentiation. To differentiate the 3T3-L1 pre-adipocytes into adipocytes, we used the protocol previously described by Zebisch et al. (Zebisch, K., et al. (2012)). Briefly, 3T3-L1 pre-adipocytes were sub-cultured in DMEM supplemented with 5% newborn calf serum, 100 U/ml penicillin, 100 μg/ml streptomycin and 5 μg/ml plasmocin (Basal Media 1—BM1). The cells were then plated at 6×10^5 cells per dish in 35-mm dishes, 3×10^5 cells per well in a 12-well plate, 1.5×10^5 cells in a 24-well plate or 3.0×10^4 cells per well in a 96-well plate. The cells were grown to confluency with BM1 replacement every other day. Following 48 h of confluency, 3T3-L1 cells were treated with Differentiation medium 1 (DM1), which is BM1 supplemented with […] iso-butyl-methylxanthine, 0.25 μM dexamethasone, 1 μg/ml insulin and 2 μg/ml rosiglitazone. After 48 h, the medium was replaced with differentiation medium 2 (DM2); this is BM1 supplemented with 1 μg/ml insulin. On the seventh day, the cells were placed in DMEM with FBS. The cells were cultured to the date indicated in the experiments below with media changes every other day. The presence of adipogenesis was confirmed by microscopic detection of adipose bodies in the cells. For our experiments, only cultures with >80% differentiation were used.
Following differentiation and drug treatment, Oil Red O staining was used to qualitatively and quantitatively assess the level of neutral lipids in the differentiated cells. For qualitative assessment by phase microscopy, cells were washed twice in PBS and then fixed with 10% formalin for 30 min at room temperature. Oil Red O was reconstituted at 300 mg per 100 ml of isopropanol. The Oil Red O solution was prepared for staining by adding 20 ml of deionized water to 30 ml of the Oil Red O stock solution and filtered. The cells were then incubated for 5 min in 60% isopropanol. The Oil Red O working solution was then added to cells for 5 min. The monolyers were then rinsed clean with deionized water. The cells were then visualized using phase microscopy on the EVOS XL Core microscope. For quantitative assessment of adipogenesis in 96-well formats, cells were lysed in dimethylsulfoxide (DMSO) following the water wash of Oil Red O stained cells. The DMSO released the intracellular Oil Red O into the solution. The absorbance (492 nm) was measured using the BioTek Synergy H1 plate reader.

[3] = tested on: HMGA2; assay: In-cell western analysis of HMGA2 expression in 3T3-L1 cells; assay type: cell-based, mouse; details: normalized to TO-PRO-3, FIGS. 17F and G
Protocol: Specific protein levels were analyzed using in-cell western technology (Egorina, E. M., et al (2006)). During differentiation and drug administration, 3T3-L1 cells were fixed in 4% paraformaldehyde in PBS for 25 min at room temperature. Pre-adipocytes were quenched by washing the cells in 100 mM glycine for 5 min at room temperature. The cells were permeabilized by incubating the cells in 0.2% Triton X-100 in PBS for 30 min at room temperature. The cells were then blocked using LICOR Odyssey Blocking Buffer (LI-COR Biosciences, 927-40100) for 1 h at room temperature. Cells were then incubated with a primary antibody for HMGA2 (Cell Signaling Technologies #5269) at a 1:500 dilution in LI-COR Odyssey Blocking Buffer supplemented with 0.1% Tween-20 for 2.5 h at room temperature. The cells were washed in 0.1% Tween in PBS. Secondary antibodies (IRDye 800CW anti-rabbit, LI-COR Biosciences, 926-32211) were incubated at a dilution of 1:1000 in LI-COR Blocking Buffer supplemented with 0.1% Tween-20 for 1 h. Concurrent to the addition of secondary antibody TO-PRO-3 (Invitrogen) was added at a 1:1000 dilution as a normalization control for cell number and incubated for 1 h. The cells were washed again in 0.1% Tween-20 in PBS. Plates were then scanned on the LICOR Biosciences Odyssey CLx Infrared Imaging System and quantified using the LI-COR in-cell western analysis in Image Studio.

With `Cn1cc(NC(=O)c2cc(NC(=O)CN=C(N)N)cn2C)cc1C(=O)NCCC(=N)N` [Netropsin, netropsin dihydrochloride] the “OD450 of the PDI-ELISA in the presence of the compound” value ([1]; 100 nM compound, 100 nM FL814, 1 μM HMGA2, 2×SSCT, OD450 without drug 1.44) was 0.152, the “inhibition of HMGA2-DNA interactions (OD450 back to background)” value ([1]; 500 nM or 1 μM netropsin, FIG. 10A, dihydrochloride) was “complete inhibition; also recorded: completely inhibited” and the “inhibition of HMGA2-FL814 interactions” value ([1]; dihydrochloride) was “completely inhibit”. For the same compound, the “inhibition of HMGA2-FL814 interactions” value ([1]; listed as netropsin, dihydrochloride) was “potently inhibit”, the IC50 ([1]; FIG. 10B, 0.5 μM HMGA2, read-out: inhibitory IC50 of HMGA2 binding to FL814) was ~10 nM and the IC50 ([1]; FIG. 11B, three titration experiments, read-out: apparent inhibitory IC50 of HMGA2 binding to FL814) was 9.3 ± 0.78 nM. The “inhibition of differentiation of 3T3-L1 cells to adipocytes” value ([2]; FIGS. 17A-17G) was “strongly inhibited”, the inhibition at 10 µM ([2]; Mus musculus, 10 μM, Oil red O staining, differentiated 3T3-L1 cells, read-out: inhibition of neutral lipid production) was > 50% and the IC50 ([2]; Mus musculus, 3T3-L1, Oil Red O absorbance 492 nm, read-out: inhibition IC50 of neutral lipids in the differentiated cells) was 7900 ± 1100 nM. For the same compound, the “HMGA2 expression in fully differentiated 3T3-L1 cells in the presence of the compound” value [3] was “expressed”.
